“And” between values parts separate entries of the source, which are not always exact repeats. Equal values may be shown once. Read-outs that look alike come from different tables or passages of the source.
Experiments:
[1] = molecular target: T1, CDK12–cyclin K and DDB1 (Homo sapiens, UniProt Q16531+Q9NYV4, K965R); experiment: TR-FRET ternary complex formation assay (compound titration); assay type: binding; details: for TR-FRET signal at compound concentration 4.68 nM / TR-FRET signal at compound concentration 21.6 nM / TR-FRET signal at compound concentration 36 nM / TR-FRET signal at compound concentration 79.2001 nM / TR-FRET signal at compound concentration 158.4 nM / TR-FRET signal at compound concentration 309.6 nM / TR-FRET signal at compound concentration 626.401 nM / TR-FRET signal at compound concentration 1252.8 nM / TR-FRET signal at compound concentration 2448 nM / TR-FRET signal at compound concentration 9936.01 nM / TR-FRET signal at compound concentration 20016 nM: raw titration data; for TR-FRET signal at compound concentration: replicate titrations
T1 construct: His6–CDK12 (a.a. 713–1,052); full-length or beta-propeller B domain deletion (ΔBPB: a.a. 396–705 deleted) constructs of His6–DDB1ΔBPB, StrepII–Avi–DDB1, or His6–Spy–DDB1; made in house; host or cells: Trichoplusia ni High Five insect cells (baculovirus)
T1 sequence (Q9NYV4 713-1052 K965R): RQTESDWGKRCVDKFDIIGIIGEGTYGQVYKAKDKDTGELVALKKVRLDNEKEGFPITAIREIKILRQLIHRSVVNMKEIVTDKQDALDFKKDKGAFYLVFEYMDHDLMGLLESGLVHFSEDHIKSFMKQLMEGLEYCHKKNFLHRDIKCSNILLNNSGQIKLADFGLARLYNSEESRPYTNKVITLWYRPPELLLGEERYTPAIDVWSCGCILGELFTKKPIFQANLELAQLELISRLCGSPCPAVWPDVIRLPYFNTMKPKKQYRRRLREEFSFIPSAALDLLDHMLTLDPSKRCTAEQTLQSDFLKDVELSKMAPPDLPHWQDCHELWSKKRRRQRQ
T1 sequence (O75909 1-267 partner): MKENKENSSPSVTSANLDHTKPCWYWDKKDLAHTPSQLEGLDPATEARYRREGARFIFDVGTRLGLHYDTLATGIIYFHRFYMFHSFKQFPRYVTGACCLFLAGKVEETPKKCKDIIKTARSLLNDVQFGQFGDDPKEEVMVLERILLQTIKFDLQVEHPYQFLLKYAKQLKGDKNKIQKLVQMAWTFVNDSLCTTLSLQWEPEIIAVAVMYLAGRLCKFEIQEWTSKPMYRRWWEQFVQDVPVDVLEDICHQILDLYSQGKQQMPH
T1 sequence (Q16531 whole entry): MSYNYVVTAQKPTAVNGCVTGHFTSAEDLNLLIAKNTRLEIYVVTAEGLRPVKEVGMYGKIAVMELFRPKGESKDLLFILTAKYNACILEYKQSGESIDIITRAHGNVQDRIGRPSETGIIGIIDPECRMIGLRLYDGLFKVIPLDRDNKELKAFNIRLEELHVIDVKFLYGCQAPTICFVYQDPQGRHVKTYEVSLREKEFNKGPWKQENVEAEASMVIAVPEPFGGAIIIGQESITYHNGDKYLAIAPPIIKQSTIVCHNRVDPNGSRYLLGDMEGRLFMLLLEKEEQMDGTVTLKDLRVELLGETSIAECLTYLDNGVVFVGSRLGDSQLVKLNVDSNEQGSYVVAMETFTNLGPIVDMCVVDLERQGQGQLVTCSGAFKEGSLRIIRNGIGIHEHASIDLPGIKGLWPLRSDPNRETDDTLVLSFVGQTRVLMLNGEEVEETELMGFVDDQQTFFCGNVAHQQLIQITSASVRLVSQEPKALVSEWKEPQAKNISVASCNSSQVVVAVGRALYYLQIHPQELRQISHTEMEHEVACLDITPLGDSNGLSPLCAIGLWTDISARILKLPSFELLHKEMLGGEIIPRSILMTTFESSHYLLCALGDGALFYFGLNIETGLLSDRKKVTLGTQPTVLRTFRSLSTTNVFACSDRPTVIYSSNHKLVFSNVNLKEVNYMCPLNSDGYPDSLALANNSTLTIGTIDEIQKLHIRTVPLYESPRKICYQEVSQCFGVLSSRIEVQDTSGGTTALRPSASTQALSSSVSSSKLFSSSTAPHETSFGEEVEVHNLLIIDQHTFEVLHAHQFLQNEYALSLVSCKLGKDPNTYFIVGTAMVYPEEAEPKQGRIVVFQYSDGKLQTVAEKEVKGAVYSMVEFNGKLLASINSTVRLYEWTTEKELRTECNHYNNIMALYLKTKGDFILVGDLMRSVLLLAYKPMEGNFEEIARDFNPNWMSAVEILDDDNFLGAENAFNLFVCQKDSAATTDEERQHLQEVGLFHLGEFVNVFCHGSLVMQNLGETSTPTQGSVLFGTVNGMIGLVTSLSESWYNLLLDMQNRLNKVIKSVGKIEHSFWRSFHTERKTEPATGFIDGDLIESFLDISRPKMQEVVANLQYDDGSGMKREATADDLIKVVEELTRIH
How it was run: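 TR-FRET ratio 520/490 nm; 70 μs delay before read to suppress background.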

[2] = test system: cyclin K–eGFP degradation reporter; experiment: Cyclin K reporter stability analysis (dual-color cyclin K–eGFP reporter); assay type: cell-based, human; details: source data sheet correlations; read-out: DC50
How it was run: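 HEK293T–Cas9 cells carrying the cyclin K–eGFP reporter were seeded at 1 × 10^6 ml^−1 and exposed to drug or DMSO for 5 h. Flow cytometry gave geometric means of eGFP and mCherry in round, mCherry-positive cells. The eGFP/mCherry ratio was normalized to the mean of three DMSO controls.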

[3] = test system: HEK293T cells; experiment: Drug sensitivity assay (CellTiter-Glo viability) with or without MLN4924 pretreatment; assay type: cell-based, human; details: for EC50: Homo sapiens, HEK-293T; for Toxicity rescue: MLN4924-mediated cytotoxicity rescue, 10 µM used where n.d.
How it was run: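 Luminescent ATP read-out (CellTiter-Glo) after 3 days of drug exposure, normalised to DMSO controls. Cells were HEK293T–Cas9, pretreated with 100 nM MLN4924 or DMSO for 2 h before drug dispensing.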

[4] = in vitro complex formation, 50 nM CDK12–cyclin K, 100 nM DDB1, text and figures, read-out: TR-FRET EC50
[5] = sheet MOESM7, read-out: log TR-FRET EC50 (converted)
[6] = source data sheet correlations, read-out: TR-FRET EC50
[7] = Supplementary Table 2, HEK293T viability, 72 h, compound alone, read-out: Cellular assays EC50
[8] = compound concentration 79.2001 nM
[9] = compound concentration 158.4 nM
[10] = compound concentration 309.6 nM
[11] = compound concentration 626.401 nM
[12] = compound concentration 1252.8 nM
[13] = compound concentration 9936.01 nM
[14] = compound concentration 20016 nM
[15] = Supplementary Fig. 5, HEK293T, CellTiter Glo, 72h, read-out: Viability EC50, no MLN4924
[16] = compound concentration 0.468 nM
[17] = compound concentration 7.92001 nM
[18] = compound concentration 15.84 nM
[19] = compound concentration 30.96 nM
[20] = compound concentration 62.6401 nM
[21] = compound concentration 125.28 nM
[22] = compound concentration 244.8 nM
[23] = compound concentration 993.601 nM
[24] = compound concentration 2001.6 nM

| EC50 [1, 4] | EC50 [1, 5] | EC50 [1, 6] | DC50 [2] | TR-FRET signal at compound concentration [1, 16] | TR-FRET signal at compound concentration ([1]; compound concentration 2.16 nM) | TR-FRET signal at compound concentration ([1]; compound concentration 3.6 nM) | TR-FRET signal at compound concentration [1, 17] | TR-FRET signal at compound concentration [1, 18] | TR-FRET signal at compound concentration [1, 19] | TR-FRET signal at compound concentration [1, 20] | TR-FRET signal at compound concentration [1, 21] | TR-FRET signal at compound concentration [1, 22] | TR-FRET signal at compound concentration [1, 23] | TR-FRET signal at compound concentration [1, 24] | Compound | EC50 [3, 7] | Toxicity rescue ([3]; Supplementary Table 2) | also measured |
| --- | --- | --- | --- | --- | --- | --- | --- | --- | --- | --- | --- | --- | --- | --- | --- | --- | --- | --- |
| 72 ± 5 nM | 72.3 nM | 72.3 nM | 587 nM | – | – | – | – | – | – | – | – | – | – | – | Cn1cc(-n2cnc3c(NCc4nc5cc(Cl)c(Cl)cc5[nH]4)nc(NCCc4cn[nH]c4)nc32)cn1 [DS57] | > 10000 nM | 0% | TR-FRET signal at compound concentration 0.468 nM ([1]; compound concentration 0.468 nM, raw replicate titration data): 0.2681 and 0.2803; TR-FRET signal at compound concentration 2.16 nM ([1]; compound concentration 2.16 nM, raw replicate titration data): 0.3056 and 0.3131; TR-FRET signal at compound concentration 3.6 nM ([1]; compound concentration 3.6 nM, raw replicate titration data): 0.3611 and 0.3774; TR-FRET signal at compound concentration 7.92001 nM ([1]; compound concentration 7.92001 nM, raw replicate titration data): 0.4715 and 0.4922; TR-FRET signal at compound concentration 15.84 nM ([1]; compound concentration 15.84 nM, raw replicate titration data): 0.6621 and 0.6827; TR-FRET signal at compound concentration 30.96 nM ([1]; compound concentration 30.96 nM, raw replicate titration data): 1.043 and 1.045; TR-FRET signal at compound concentration 62.6401 nM ([1]; compound concentration 62.6401 nM, raw replicate titration data): 1.709 and 1.668; TR-FRET signal at compound concentration 125.28 nM ([1]; compound concentration 125.28 nM, raw replicate titration data): 2.476 and 2.42; TR-FRET signal at compound concentration 244.8 nM ([1]; compound concentration 244.8 nM, raw replicate titration data): 2.963 and 3.026; TR-FRET signal at compound concentration 993.601 nM ([1]; compound concentration 993.601 nM, raw replicate titration data): 3.269 and 3.459; TR-FRET signal at compound concentration 2001.6 nM ([1]; compound concentration 2001.6 nM, raw replicate titration data): 3.336 and 3.495 |
| 948 ± 61 nM | 948 nM | 948 nM | 2020 nM | – | – | – | – | – | – | – | – | – | – | – | CC(C)n1cnc2c(NCc3ccc(-c4ccccn4)cc3)nc(N[C@@H](Cc3ccc(OCc4ccccc4)cc3)c3nnc[nH]3)nc21 [DS58] | 1780 nM | 461% | TR-FRET signal at compound concentration 4.68 nM ([1]; compound concentration 4.68 nM): 0.2093 and 0.2396; TR-FRET signal at compound concentration 21.6 nM ([1]; compound concentration 21.6 nM): 0.2345 and 0.3021; TR-FRET signal at compound concentration 36 nM ([1]; compound concentration 36 nM): 0.286 and 0.3105; TR-FRET signal at compound concentration 79.2001 nM [1, 8]: 0.3776 and 0.414; TR-FRET signal at compound concentration 158.4 nM [1, 9]: 0.5529 and 0.574; TR-FRET signal at compound concentration 309.6 nM [1, 10]: 0.8665 and 0.8767; TR-FRET signal at compound concentration 626.401 nM [1, 11]: 1.353 and 1.369; TR-FRET signal at compound concentration 1252.8 nM [1, 12]: 2.037 and 2.014; TR-FRET signal at compound concentration 2448 nM ([1]; compound concentration 2448 nM): 2.68 and 2.699; TR-FRET signal at compound concentration 9936.01 nM [1, 13]: 3.329 and 3.445; TR-FRET signal at compound concentration 20016 nM [1, 14]: 3.076 and 3.1; EC50 [3, 15]: 1750 nM |
| 101 ± 5 nM | – | 101 nM | 566 nM | – | – | – | – | – | – | – | – | – | – | – | Cc1nn(C)c(CNc2nc(NCc3ccc(-c4ccccn4)cc3)c3ncn(C(C)C)c3n2)c1S(N)(=O)=O [DS59] | 1420 nM | 230% | TR-FRET signal at compound concentration 4.68 nM ([1]; compound concentration 4.68 nM): 0.1939 and 0.1953; TR-FRET signal at compound concentration 21.6 nM ([1]; compound concentration 21.6 nM): 0.4174 and 0.4335; TR-FRET signal at compound concentration 36 nM ([1]; compound concentration 36 nM): 0.8682 and 0.9198; TR-FRET signal at compound concentration 79.2001 nM [1, 8]: 1.565 and 1.549; TR-FRET signal at compound concentration 158.4 nM [1, 9]: 2.139 and 2.165; TR-FRET signal at compound concentration 309.6 nM [1, 10]: 2.574 and 2.56; TR-FRET signal at compound concentration 626.401 nM [1, 11]: 2.883 and 2.886; TR-FRET signal at compound concentration 1252.8 nM [1, 12]: 3.135 and 3.111; TR-FRET signal at compound concentration 2448 nM ([1]; compound concentration 2448 nM): 3.2283 and 3.26; TR-FRET signal at compound concentration 9936.01 nM [1, 13]: 3.148 and 3.114; TR-FRET signal at compound concentration 20016 nM [1, 14]: 2.946 and 3.018 |
| 169 ± 7 nM | – | 168 nM | 917 nM | – | – | – | – | – | – | – | – | – | – | – | CC[C@H](CO)Nc1nc(NCc2ccc(OCCO)cc2)c2ncn(C(C)C)c2n1 [DS61] | 283 nM | 278% | TR-FRET signal ([1]; compound concentration 4.68 nM): 0.1556 and 0.1596; TR-FRET signal ([1]; compound concentration 21.6 nM): 0.2553 and 0.252; TR-FRET signal ([1]; compound concentration 36 nM): 0.4296 and 0.427; TR-FRET signal [1, 8]: 0.6728 and 0.6901; TR-FRET signal [1, 9]: 0.9753 and 0.9579; TR-FRET signal [1, 10]: 1.242 and 1.248; TR-FRET signal [1, 11]: 1.483 and 1.517; TR-FRET signal [1, 12]: 1.637 and 1.718; TR-FRET signal ([1]; compound concentration 2448 nM): 1.781 and 1.804; TR-FRET signal [1, 13]: 1.87 and 1.831; TR-FRET signal [1, 14]: 1.812 and 1.801; EC50 [3, 15]: 281 nM |
| 21 ± 1 nM | 20.8 nM | 20.8 nM | 103 nM | 0.285 and 0.2127 and 0.2055 | 0.3417 and 0.2944 and 0.2907 | 0.5004 and 0.4783 and 0.4869 | 0.7813 and 0.9382 and 0.8877 | 1.382 and 1.799 and 1.705 | 2.38 and 2.795 and 2.787 | 3.286 and 3.376 and 3.32 | 3.728 and 3.691 and 3.7229 | 3.806 and 3.848 and 3.815 | 3.884 and 3.899 and 3.865 | 3.902 and 3.823 and 3.872 | CC[C@H](CO)Nc1nc(NCCCc2ccc(Cl)c(Cl)c2)c2ncn(C(C)C)c2n1 [DS65] | 528 nM | 214% | – |
| 18 ± 1 nM | 17.7 nM | 17.7 nM | 88 nM | 0.2923 and 0.3076 and 0.198 and 0.2218 | 0.3989 and 0.4255 and 0.2838 and 0.3021 | 0.6137 and 0.6924 and 0.4704 and 0.4752 | 1.224 and 1.234 and 0.9118 and 0.9562 | 2 and 2.2 and 1.736 and 1.809 | 3.161 and 3.3799 and 3.037 and 2.9897 | 3.7362 and 4.009 and 3.696 and 3.655 | 3.905 and 4.159 and 3.906 and 3.9109 | 4.008 and 4.194 and 3.9625 and 4.012 | 4.134 and 4.267 and 4.125 and 4.115 | 4.074 and 4.31 and 4.121 and 4.142 | CC[C@H](CO)Nc1nc(NCCCc2ccc(C)c(C)c2)c2ncn(C(C)C)c2n1 [DS66] | > 10000 nM | 0% | – |
| 31 ± 1 nM | 30.5 nM | 30.5 nM | 219 nM | 0.3354 and 0.3368 | 0.4163 and 0.4021 | 0.5886 and 0.5847 | 0.9073 and 0.903 | 1.493 and 1.552 | 2.297 and 2.228 | 3.049 and 3.013 | 3.561 and 3.406 | 3.933 and 3.877 | 4.034 and 4.0558 | 4.271 and 4.04 | CCc1cccc(CCCNc2nc(N[C@H](CC)CO)nc3c2ncn3C(C)C)c1 [DS67] | 517 nM | 819% | – |

From paper PMC10746543, “Design principles for cyclin K molecular glue degraders” (Nature Chemical Biology, 2023)
